In US9399635B2, “Pyrazole derivative” (GREEN TECH CO., LTD., priority 2011, dated 2016):

How the values were obtained:
[1] = biological target: recombinant three-repeat microtubule-binding domain (3R-MBD) of tau protein (Homo sapiens, UniProt P10636); experiment: Determination of tau aggregation inhibitory activity (heparin-induced, thioflavin T fluorescence; electron microscope); type: biochemical; conditions: for IC50: 3R-MBD tau 10 μM, heparin 10 μM, 37° C. for 16 hours, thioflavin T, read-out: IC50 (μM) Test example 1 (tau aggregation inhibitory activity)
Experimental: Pharmacological Test Example 1: Determination of Tau Aggregation Inhibitory Activity
A recombinant three-repeat microtubule-binding domain (3R-MBD) of tau protein was expressed in E. coli and was purified and used for the experiment. The purified tau solution was diluted with a 50 mM Tris-HCl buffer (pH 7.6) to a final concentration of 10 μM. The test compounds were prepared using dimethylsulfoxide (DMSO) at 20-fold of their final concentrations and added to the plate so that the DMSO concentration would be 5%. Heparin was added to the plate so that the final concentration would be 10 μM and the plate was left to stand at 37° C. for 16 hours. Thioflavin T was added to the plate so that the concentration would be 10 μM and the fluorescence intensity was measured with a fluorescence plate reader (PerkinElmer, Inc.) (excitation wavelength: 440 nm; emission wavelength: 480 nm).
(§1) The final concentration of each compound at the time of measurement was set at 0.1, 0.3, 1, 3, and 10 μM. The sample to which only DMSO was added was used as a negative control and its fluorescence intensity was taken as 0% inhibitory activity.
The samples were placed on a grid and washed with distilled water. A 1 mM phosphotungstic acid aqueous solution was added to the samples. The samples were washed, dried overnight, and observed.

[2] = biological target: T1, recombinant human β-secretase (Homo sapiens, UniProt P56817); experiment: Determination of β-secretase inhibitory activity (BACE-1 FRET assay Kit); type: biochemical; conditions: for IC50: recombinant human β-secretase, fluorescent substrate peptide, 1 hour, read-out: IC50 (μM) Test example 2 (β-secretase inhibitory activity)
T1 construct: purchased Invitrogen
Experimental: Pharmacological Test Example 2: Determination of β-Secretase Inhibitory Activity
The β-secretase inhibitory activity was measured with BACE-1 FRET assay Kit (Invitrogen). The test compounds were prepared using DMSO at 30-fold of their final concentrations and dissolved so that the DMSO concentration would be 10%. To each of the solutions, an equal volume of a recombinant human β-secretase (1 U/mL) dissolved in the assay buffer and an equal volume of fluorescent substrate peptide (2.5 nM) were added and the solutions were left to stand for 1 hour. The fluorescence intensity was measured with a fluorescence plate reader (excitation wavelength: 545 nm; emission wavelength: 590 nm).
The final concentration of each compound at the time of measurement was set at 0.1, 0.3, 1, 3, and 10 μM, at 0.3, 1, 3, 10, and 30 μM, or at 1, 3, 10, 30, and 100 μM.

Aβ 1-42 = biological target: T2, Aβ 1-42 (Homo sapiens, UniProt P05067); experiment: Determination of Aβ aggregation inhibitory activity (thioflavin T fluorescence); type: biochemical; conditions: Aβ 1-42, 37° C. for 24 hours, thioflavin T; read-out: IC50 (μM) Test example 3 (Aβ aggregation inhibitory activity)
T2 construct: Aβ 1-42 (Peptide Institute, Inc.) was dissolved in 0.3% ammonia water; purchased Peptide Institute, Inc
Experimental: Pharmacological test example 3: Determination of Aβ aggregation inhibitory activity
Aβ 1-42 (Peptide Institute, Inc.) was dissolved in 0.3% ammonia water so that the concentration would be 0.5 mM and then diluted with PBS to 20 μM. The test compounds were prepared using DMSO at 100-fold of their final concentrations and adjusted so that the DMSO concentration would be 2%. The Aβ solution and each of the test compound solutions were mixed at an equivalent ratio and the mixtures were incubated at 37° C. for 24 hours. To each of the mixtures, an equal volume of a thioflavin T solution adjusted with a 100 mM Tris-glycine buffer (pH 8.5) to 6 μM was added. The fluorescence intensity was measured with a fluorescence plate reader (excitation wavelength: 440 nm; emission wavelength: 480 nm).
as §1

recombinant three-repeat microtubule-binding domain (3R-MBD) of tau protein, sequence (P10636 186-279 isoform P10636-2 limits assumed): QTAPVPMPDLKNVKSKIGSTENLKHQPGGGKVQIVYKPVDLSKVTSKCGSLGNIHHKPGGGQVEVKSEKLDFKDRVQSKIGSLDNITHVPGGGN
T1 sequence (P56817 46-501): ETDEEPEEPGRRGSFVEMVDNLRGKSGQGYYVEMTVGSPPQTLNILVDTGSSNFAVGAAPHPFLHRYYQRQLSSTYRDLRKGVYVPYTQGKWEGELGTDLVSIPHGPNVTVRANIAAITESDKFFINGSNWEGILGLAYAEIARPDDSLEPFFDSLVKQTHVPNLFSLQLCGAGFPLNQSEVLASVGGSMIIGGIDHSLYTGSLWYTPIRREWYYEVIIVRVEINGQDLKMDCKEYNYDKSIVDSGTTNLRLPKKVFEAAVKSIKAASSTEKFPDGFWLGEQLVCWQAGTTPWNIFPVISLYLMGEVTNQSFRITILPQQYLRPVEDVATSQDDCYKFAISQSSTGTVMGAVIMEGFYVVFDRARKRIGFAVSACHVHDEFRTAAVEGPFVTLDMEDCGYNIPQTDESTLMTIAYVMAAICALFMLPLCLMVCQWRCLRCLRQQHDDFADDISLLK
T2 sequence (P05067 672-713): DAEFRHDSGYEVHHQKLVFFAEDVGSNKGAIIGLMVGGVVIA

IC50 [1] [µM]	melting point [°C]	IC50 [2] [µM]	IC50 (Aβ 1-42) [µM]	tau aggregation inhibitory activity at 1 μM ([1]; compound at 1 μM) [%]	inhibition at 1 µM ([2]; compound at 1 μM) [%]	Compound
1.49	218 to 220	2.85	3			COc1cc(OCC2CCCO2)ccc1/C=C/c1cc(/C=C/c2ccc3cc[nH]c3c2)[nH]n1 (centres unmarked) [Example 1, 3-[(1E)-2-(1H-indol-6-yl)ethenyl]-5-[(1E)-2-[2-methoxy-4-(2-tetrahydrofuranylmethoxy)phenyl]ethenyl]-1H-pyrazole]
	202.5 to 203.5	2.9	1.6			Oc1cc(OCc2ccccn2)ccc1/C=C/c1cc(/C=C/c2ccc3cc[nH]c3c2)[nH]n1 [Example 3, 3-[(1E)-2-(1H-indol-6-yl)ethenyl]-5-[(1E)-2-[2-hydroxy-4-(2-pyridylmethoxy)phenyl]ethenyl]-1H-pyrazole]
1.28	113 to 122	1.04	7.53			COc1cc(OCCN2CCOCC2)ccc1/C=C/c1cc(/C=C/c2ccc3cc[nH]c3c2)[nH]n1 [Example 27, 3-[(1E)-2-(1H-indol-6-yl)ethenyl]-5-[(1E)-2-[2-methoxy-4-(2-morpholinoethoxy)phenyl]ethenyl]-1H-pyrazole]
1.57	135 to 142	0.69	6.88			COc1cc(OCc2ccccn2)ccc1/C=C/c1cc(/C=C/c2ccc3[nH]cnc3c2)[nH]n1 [Example 31, 3-[(1E)-2-(1H-benzimidazol-5-yl)ethenyl]-5-[(1E)-2-[2-methoxy-4-(2-pyridylmethoxy)phenyl]ethenyl]-1H-pyrazole]
	172 to 174		0.91			COc1cc(OCc2ccccn2)ccc1/C=C/c1cc(/C=C/c2ccc3ccn(C)c3c2)[nH]n1 [Example 35, 3-[(1E)-2-[2-methoxy-4-(2-pyridylmethoxy)phenyl]ethenyl]-5-[(1E)-2-(1-methyl-1H-indol-6-yl)ethenyl]-1H-pyrazole]
	150.8 to 151.6		2.9			COc1cc(OCc2ccccn2)ccc1/C=C/c1cc(/C=C/c2cc3ccccc3[nH]2)[nH]n1 [Example 36, 3-[(1E)-2-(1H-indol-2-yl)ethenyl]-5-[(1E)-2-[2-methoxy-4-(2-pyridylmethoxy)phenyl]ethenyl]-1H-pyrazole]
	78.1 to 80		0.4			CCN(CC)c1ccc(/C=C/c2cc(/C=C/c3ccc4cc[nH]c4c3)[nH]n2)c(OCc2ccccc2)c1 [Example 37, 3-[(1E)-2-(2-benzyloxy-4-diethylaminophenyl)ethenyl]-5-[(1E)-2-(1H-indol-6-yl)ethenyl]-1H-pyrazole]
3.84	104 to 109	1.11	2.17			COc1ccc([N+](=O)[O-])c(/C=C/c2cc(/C=C/c3ccc4cc[nH]c4c3)[nH]n2)c1 [Example 58, 3-[(1E)-2-(1H-indol-6-yl)ethenyl]-5-[(1E)-2-(5-methoxy-2-nitrophenyl)ethenyl]-1H-pyrazole]
1.37	86 to 91	4.39	> 10			COc1cc(OCc2ccccc2)ccc1/C=C/c1cc(/C=C/c2ccc3cc[nH]c3c2)[nH]n1 [Example 63, 3-[(1E)-2-(4-benzyloxy-2-methoxyphenyl)ethenyl]-5-[(1E)-2-(1H-indol-6-yl)ethenyl]-1H-pyrazole]
1.46	132 to 136	0.22	2.45			CN1CCCN(c2ccc(/C=C/c3cc(/C=C/c4ccc5cc[nH]c5c4)[nH]n3)c(Br)c2)CC1 [Example 72, 3-[(1E)-2-[2-bromo-4-(4-methyl-1,4-diazepan-1-yl)phenyl]ethenyl]-5-[(1E)-2-(1H-indol-6-yl)ethenyl]-1H-pyrazole]
1.26	218 to 220	13.7	> 10			COc1cc(OCc2ccccn2)ccc1/C=C/c1cc(/C=C/c2ccc3c(c2)OCO3)[nH]n1 [Example 77, 3-[(1E)-2-(1,3-benzodioxol-5-yl)ethenyl]-5-[(1E)-2-[2-methoxy-4-(2-pyridylmethoxy)phenyl]ethenyl]-1H-pyrazole]
	104 to 108					COc1cc(OCC2CCCCC2)ccc1/C=C/c1cc(/C=C/c2ccc3cc[nH]c3c2)[nH]n1 [Example 80, 3-[(1E)-2-[4-(cyclohexylmethoxy)-2-methoxyphenyl]ethenyl]-5-[(1E)-2-(1H-indol-6-yl)ethenyl]-1H-pyrazole]
	102 to 110					COc1cc(OCCn2cccc2)ccc1/C=C/c1cc(/C=C/c2ccc3cc[nH]c3c2)[nH]n1 [Example 81, 3-[(1E)-2-(1H-indol-6-yl)ethenyl]-5-[(1E)-2-[2-methoxy-4-[2-(pyrrol-1-yl)ethoxy]phenyl]ethenyl]-1H-pyrazole]
	102 to 104					CCN(CC)c1ccc(/C=C/c2cc(/C=C/c3ccc4cc[nH]c4c3)[nH]n2)c(OCCN2CCCCC2)c1 [Example 97, 3-[(1E)-2-[4-diethylamino-2-[2-(1-piperidyl)ethoxy]phenyl]ethenyl]-5-[(1E)-2-(1H-indol-6-yl)ethenyl]-1H-pyrazole]
	209 to 213					COc1cc(OCc2ccccn2)ccc1/C=C/c1cc(/C=C/c2c[nH]c3ccc(F)cc23)[nH]n1 [Example 99, 3-[(1E)-2-(5-fluoro-1H-indol-3-yl)ethenyl]-5-[(1E)-2-[2-methoxy-4-(2-pyridylmethoxy)phenyl]ethenyl]-1H-pyrazole]
	189 to 195					COc1ccc2[nH]cc(/C=C/c3cc(/C=C/c4ccc(OCc5ccccn5)cc4OC)n[nH]3)c2c1 [Example 100, 3-[(1E)-2-(5-methoxy-1H-indol-3-yl)ethenyl]-5-[(1E)-2-[2-methoxy-4-(2-pyridylmethoxy)phenyl]ethenyl]-1H-pyrazole]
	236 to 238					C(=C\c1cc(/C=C/c2ccc3cc[nH]c3c2)[nH]n1)/c1ccc(N2CCOCC2)cc1 [Example 103, 5-[(1E)-2-(1H-indol-6-yl)ethenyl]-3-[(1E)-2-(4-morpholinophenyl)ethenyl]-1H-pyrazole]
	104 to 108					CCN(CC)c1ccc(/C=C/c2cc(/C=C/c3ccc4cc[nH]c4c3)[nH]n2)c(OC)c1 [Example 104, 3-[(1E)-2-(4-diethylamino-2-methoxyphenyl)ethenyl]-5-[(1E)-2-(1H-indol-6-yl)ethenyl]-1H-pyrazole]
	224 to 227					CN(C)c1ccc(/C=C/c2cc(/C=C/c3ccc4cc[nH]c4c3)[nH]n2)cc1 [Example 105, 3-[(1E)-2-(4-dimethylaminophenyl)ethenyl]-5-[(1E)-2-(1H-indol-6-yl)ethenyl]-1H-pyrazole]
	201 to 204					CCN(CC)c1ccc(/C=C/c2cc(/C=C/c3ccc4cc[nH]c4c3)[nH]n2)cc1 [Example 106, 3-[(1E)-2-(4-diethylaminophenyl)ethenyl]-5-[(1E)-2-(1H-indol-6-yl)ethenyl]-1H-pyrazole]
	189 to 191					C(=C\c1cc(/C=C/c2ccc3cc[nH]c3c2)[nH]n1)/c1ccc(N2CCCCC2)cc1 [Example 107, 5-[(1E)-2-(1H-indol-6-yl)ethenyl]-3-[(1E)-2-[4-(1-piperidinyl)phenyl]ethenyl]-1H-pyrazole]
	143 to 146			0	12	COc1cc(OCc2ccccn2)ccc1/C=C/c1cc(/C=C/c2ccccc2)[nH]n1 [Example 109, 3-[(1E)-2-[2-methoxy-4-(2-pyridylmethoxy)phenyl]ethenyl]-5-[(1E)-2-phenylethenyl]-1H-pyrazole]
